For the assay, the target named is T1, GPR43 (Homo sapiens, UniProt O15552).
T1 construct: expressed in transfected cells
T1 sequence (O15552 1-330): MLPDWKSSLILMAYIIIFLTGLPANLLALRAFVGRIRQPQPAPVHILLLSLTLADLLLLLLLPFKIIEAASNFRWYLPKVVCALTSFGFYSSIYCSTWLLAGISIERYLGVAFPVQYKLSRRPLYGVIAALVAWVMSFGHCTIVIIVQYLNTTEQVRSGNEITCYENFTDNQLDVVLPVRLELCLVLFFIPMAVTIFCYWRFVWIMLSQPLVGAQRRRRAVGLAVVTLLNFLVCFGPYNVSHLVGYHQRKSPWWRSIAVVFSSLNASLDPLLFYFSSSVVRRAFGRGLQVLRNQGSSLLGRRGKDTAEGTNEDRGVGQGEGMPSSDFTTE
The experiment in a line: Calcium mobilization assay with probenecid. It is filed as cell-based. To be noted: GPR43 stably expressing cells; triggered with sodium acetate at EC80; 2.5 mM probenecid; read-out: GPR43 assay with probenicid IC50. The procedure, abridged:
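Cells stably expressing GPR43 plated overnight at 37 °C, then loaded 2 h with Calcium 4 dye plus 2.5 mM probenecid. […]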
(A change in cytosolic calcium serves as a functional read-out for many receptors and channels.)

The values that follow come from patent publication US8759334B2, “Compounds useful for the treatment of metabolic and inflammatory diseases” (Galapagos NV, priority 2011, dated 2014).

As a reminder, the IC50 is the concentration needed to halve the response being measured. As to `CCC1(C(=O)N(CCCS(N)(=O)=O)Cc2cccc(Cl)c2)CCN1C(=O)c1csc2ccccc12` (centres unmarked) [Compound 208, 1-(benzo[b]thiophene-3-carbonyl)-N-(3-chlorobenzyl)-2-ethyl-N-(3-sulfamoylpropyl)azetidine-2-carboxamide], the IC50 is 0.01 to 100 nM. As to `C[C@@H](c1ccc(Cl)cc1)N(CCCS(N)(=O)=O)C(=O)C1(C)CCN1C(=O)c1csc2ccccc12` (stereo partly drawn) [Compound 209, 1-(benzo[b]thiophene-3-carbonyl)-N-((S)-1-(4-chlorophenyl)ethyl)-2-methyl-N-(3-sulfamoylpropyl)azetidine-2-carboxamide], the IC50 lay within 101 to 500 nM. In the case of `CC1(C(=O)N(CCCC(=O)O)Cc2ccc(Cl)cc2)CCN1C(=O)Oc1ccccc1F` (centres unmarked) [Compound 210, 4-(N-(4-chlorobenzyl)-1-((2-fluorophenoxy)carbonyl)-2-methylazetidine-2-carboxamido)butanoic acid], the IC50 was above 1000 nM. As to `CC1(C(=O)N(CCCC(=O)O)Cc2ccc(Cl)cc2)CCN1C(=O)Oc1csc2ccccc12` (centres unmarked) [Compound 211, 4-(1-((benzo[b]thiophen-3-yloxy)carbonyl)-N-(4-chlorobenzyl)-2-methylazetidine-2-carboxamido)butanoic acid], the IC50 lay in the range of 0.01 to 100 nM. For the molecule `Cc1ccc(OC(=O)N2CCC2(C)C(=O)N(CCCC(=O)O)Cc2ccc(Cl)cc2)c(C)c1` (centres unmarked) [Compound 213, 4-(N-(4-chlorobenzyl)-1-((2,4-dimethylphenoxy)carbonyl)-2-methylazetidine-2-carboxamido)butanoic acid], the IC50 was above 1000 nM. In the case of `COc1ccc(Cl)c(OC(=O)N2CCC2(C)C(=O)N(CCCC(=O)O)Cc2ccc(Cl)cc2)c1` (centres unmarked) [Compound 215, 4-(1-((2-chloro-5-methoxyphenoxy)carbonyl)-N-(4-chlorobenzyl)-2-methylazetidine-2-carboxamido)butanoic acid], the IC50 was above 1000 nM.

As for `CCC1(C(=O)N(CCCS(N)(=O)=O)Cc2ccc(Cl)cc2)CCN1C(=O)c1csc2ccccc12` (centres unmarked) [Compound 216, 1-(benzo[b]thiophene-3-carbonyl)-N-(4-chlorobenzyl)-2-ethyl-N-(3-sulfamoylpropyl)azetidine-2-carboxamide], the IC50 was 101 to 500 nM. `CC(C)C1(C(=O)N(CCCS(N)(=O)=O)Cc2cccc(Cl)c2)CCN1C(=O)c1csc2ccccc12` (centres unmarked) [Compound 217, 1-(benzo[b]thiophene-3-carbonyl)-N-(3-chlorobenzyl)-2-isopropyl-N-(3-sulfamoylpropyl)azetidine-2-carboxamide]: the IC50 was 101 to 500 nM. Take `COc1cccc(OC(=O)N2CCC2(C)C(=O)N(CCCC(=O)O)Cc2ccc(Cl)cc2)c1` (centres unmarked) [Compound 218, 4-(N-(4-chlorobenzyl)-1-((3-methoxyphenoxy)carbonyl)-2-methylazetidine-2-carboxamido)butanoic acid]: the IC50 is 101 to 500 nM.

With `O=C(O)CCCN(Cc1cccc(Cl)c1)C(=O)C1(Cc2ccc(F)cc2)CCN1C(=O)c1csc2ccccc12` (centres unmarked) [Compound 219, 4-(1-(benzo[b]thiophene-3-carbonyl)-N-(3-chlorobenzyl)-2-(4-fluorobenzyl)azetidine-2-carboxamido)butanoic acid], the concentration for half-maximal inhibition (IC50) lay in the range of 101 to 500 nM. For `Cc1cccc(CC2(C(=O)N(CCCC(=O)O)Cc3cccc(Cl)c3)CCN2C(=O)c2csc3ccccc23)c1` (centres unmarked) [Compound 220, 4-(1-(benzo[b]thiophene-3-carbonyl)-N-(3-chlorobenzyl)-2-(3-methylbenzyl)azetidine-2-carboxamido)butanoic acid], the IC50 was in the range of 501 to 1000 nM.

With `COc1cccc(CC2(C(=O)N(CCCC(=O)O)Cc3cccc(Cl)c3)CCN2C(=O)c2csc3ccccc23)c1` (centres unmarked) [Compound 221, 4-(1-(benzo[b]thiophene-3-carbonyl)-N-(3-chlorobenzyl)-2-(3-methoxybenzyl)azetidine-2-carboxamido)butanoic acid], the IC50 was in the range of 101 to 500 nM.

Take `O=C(O)CCCN(Cc1cccc(Cl)c1)C(=O)C1(Cc2cccc(C(F)(F)F)c2)CCN1C(=O)c1csc2ccccc12` (centres unmarked) [Compound 222, 4-(1-(benzo[b]thiophene-3-carbonyl)-N-(3-chlorobenzyl)-2-(3-(trifluoromethyl)benzyl)azetidine-2-carboxamido)butanoic acid]: the IC50 is above 1000 nM.

In the case of `Cc1ccc(OC(=O)N2CCC2(C)C(=O)N(CCCC(=O)O)Cc2ccc(Cl)cc2)c(Cl)c1` (centres unmarked) [Compound 223, 4-(1-((2-chloro-4-methylphenoxy)carbonyl)-N-(4-chlorobenzyl)-2-methylazetidine-2-carboxamido)butanoic acid], the IC50 was above 1000 nM.

For `COc1ccc(OC(=O)N2CCC2(C)C(=O)N(CCCC(=O)O)Cc2ccc(Cl)cc2)c(Cl)c1` (centres unmarked) [Compound 224, 4-(1-((2-chloro-4-methoxyphenoxy)carbonyl)-N-(4-chlorobenzyl)-2-methylazetidine-2-carboxamido)butanoic acid], the IC50 was above 1000 nM. Take `O=C(O)CCCN(Cc1cccc(Cl)c1)C(=O)C1(Cc2ccc(Cl)cc2)CCN1C(=O)c1csc2ccccc12` (centres unmarked) [Compound 225, 4-(1-(benzo[b]thiophene-3-carbonyl)-N-(3-chlorobenzyl)-2-(4-chlorobenzyl)azetidine-2-carboxamido)butanoic acid]: the IC50 was in the range of 501 to 1000 nM. In the case of `CC1(C(=O)N(CCCC(=O)O)Cc2ccc(Cl)cc2)CCN1C(=O)Oc1ccc(C(F)(F)F)cc1` (centres unmarked) [Compound 226, 4-(N-(4-chlorobenzyl)-2-methyl-1-((4-(trifluoromethyl)phenoxy)carbonyl)azetidine-2-carboxamido)butanoic acid] it was above 1000 nM; in that of `CSc1ccc(OC(=O)N2CCC2(C)C(=O)N(CCCC(=O)O)Cc2ccc(Cl)cc2)cc1` (centres unmarked) [Compound 227, 4-(N-(4-chlorobenzyl)-2-methyl-1-((4-(methylthio)phenoxy)carbonyl)azetidine-2-carboxamido)butanoic acid], 501 to 1000 nM; in that of `CCC1(C(=O)N(CCCC(=O)NS(C)(=O)=O)Cc2cccc(Cl)c2)CCN1C(=O)c1csc2ccccc12` (centres unmarked) [Compound 228, 1-(benzo[b]thiophene-3-carbonyl)-N-(3-chlorobenzyl)-2-ethyl-N-(4-(methylsulfonamido)-4-oxobutyl)azetidine-2-carboxamide], 0.01 to 100 nM. As for `C=CCC1(C(=O)N(CCCC(=O)NS(C)(=O)=O)Cc2cccc(Cl)c2)CCN1C(=O)c1csc2ccccc12` (centres unmarked) [Compound 229, 2-allyl-1-(benzo[b]thiophene-3-carbonyl)-N-(3-chlorobenzyl)-N-(4-(methylsulfonamido)-4-oxobutyl)azetidine-2-carboxamide], the IC50 lay within 0.01 to 100 nM.

As for `CS(=O)(=O)NC(=O)CCCN(Cc1cccc(Cl)c1)C(=O)C1(Cc2ccccc2)CCN1C(=O)c1csc2ccccc12` (centres unmarked) [Compound 230, 1-(benzo[b]thiophene-3-carbonyl)-2-benzyl-N-(3-chlorobenzyl)-N-(4-(methylsulfonamido)-4-oxobutyl)azetidine-2-carboxamide], the IC50 fell in the range of 101 to 500 nM. The same measure for `C[C@@H](c1cccc(Cl)c1)N(CCCC(=O)NS(C)(=O)=O)C(=O)[C@@]1(C)CCN1C(=O)c1csc2ccccc12` [Compound 231, (R)-1-(benzo[b]thiophene-3-carbonyl)-N-((S)-1-(3-chlorophenyl)ethyl)-2-methyl-N-(4-(methylsulfonamido)-4-oxobutyl)azetidine-2-carboxamide]: 0.01 to 100 nM; for `CCCC1(C(=O)N(CCCC(=O)NS(C)(=O)=O)Cc2cccc(Cl)c2)CCN1C(=O)c1csc2ccccc12` (centres unmarked) [Compound 232, 1-(benzo[b]thiophene-3-carbonyl)-N-(3-chlorobenzyl)-N-(4-(methylsulfonamido)-4-oxobutyl)-2-propylazetidine-2-carboxamide]: 101 to 500 nM. The same measure for `CC(C)C1(C(=O)N(CCCC(=O)NS(C)(=O)=O)Cc2cccc(Cl)c2)CCN1C(=O)c1csc2ccccc12` (centres unmarked) [Compound 233, 1-(benzo[b]thiophene-3-carbonyl)-N-(3-chlorobenzyl)-2-isopropyl-N-(4-(methylsulfonamido)-4-oxobutyl)azetidine-2-carboxamide]: 101 to 500 nM; for `CC1(C(=O)N(CCCC(=O)NS(C)(=O)=O)c2ccc(Cl)cc2)CCN1C(=O)c1csc2ccccc12` (centres unmarked) [Compound 234, 1-(benzo[b]thiophene-3-carbonyl)-N-(4-chlorophenyl)-2-methyl-N-(4-(methylsulfonamido)-4-oxobutyl)azetidine-2-carboxamide]: 0.01 to 100 nM; for `CC1(C(=O)N(CCCC(=O)O)Cc2ccc(Cl)cc2)CCN1C(=O)Oc1ccccc1Br` (centres unmarked) [Compound 235, 4-(1-((2-bromophenoxy)carbonyl)-N-(4-chlorobenzyl)-2-methylazetidine-2-carboxamido)butanoic acid]: above 1000 nM. Regarding `CC1(C(=O)N(CCCC(=O)O)Cc2ccc(Cl)cc2)CCN1C(=O)Oc1cc(C(F)(F)F)ccc1Cl` (centres unmarked) [Compound 236, 4-(1-((2-chloro-5-(trifluoromethyl)phenoxy)carbonyl)-N-(4-chlorobenzyl)-2-methylazetidine-2-carboxamido)butanoic acid], the IC50 is above 1000 nM.

In the case of `CC1(C(=O)N(CCCC(=O)O)Cc2ccc(Cl)cc2)CCN1C(=O)n1ccc2ccccc21` (centres unmarked) [Compound 237, 4-(N-(4-chlorobenzyl)-1-(1H-indole-1-carbonyl)-2-methylazetidine-2-carboxamido)butanoic acid], the IC50 is above 1000 nM. Consider `CC1(C(=O)N(CCCC(=O)O)Cc2ccc(Cl)cc2)CCN1C(=O)Oc1ccc(Cl)cc1Cl` (centres unmarked) [Compound 238, 4-(N-(4-chlorobenzyl)-1-((2,4-dichlorophenoxy)carbonyl)-2-methylazetidine-2-carboxamido)butanoic acid], for which the IC50 is above 1000 nM.
